From patent US7329677B2, “Imidazo(4,5-b)pyridine-derivatives as inducible no-synthase inhibitors” (Altana Pharma AG, priority 2003, dated 2008) come the findings set out here.

Molecules are shown by their SMILES. Structures can show the parent of a compound that is named as a salt.

Data set [1] has as its target T1, human inducible NO-synthase (Homo sapiens, UniProt P35228).
T1 construct: host or cells: crude cytosolic fraction
Description: Measurement of inducible NO-synthase activity ([3H]arginine conversion). The format is biochemical. The note with it: crude cytosolic fraction containing human inducible NO-synthase; 0.1 μM arginine; 45 to 60 min at 37° C.; read-out: Inhibition of iNOS activity [measured as −logIC50 (mol/l)] (converted). The protocol:
The assay is performed in 96-well microtiter F-plates (Greiner, Frickenhausen, FRG) in a total volume of 100 μl in the presence of 100 nM calmodulin, 226 μM CaCl2, 477 μM MgCl2, 5 μM flavin-adenine-dinucleotide (FAD), 5 μM flavin mononucleotide (FMN), 0.1 mM NADPH, 7 mM glutathione, 10 μM BH4 and 100 mM HEPES pH 7.2. Arginine concentrations are 0.1 μM for enzyme inhibition experiments. 150000 dpm of [^3H]arginine are added to the assay mixture. Enzyme reaction is started by the addition of 4 μg of a crude cytosolic fraction containing human inducible NO-synthase and the reaction mixture is incubated for 45 to 60 min at 37° C. Enzyme reaction is stopped by adding 10 μl of 2M MESbuffer pH 5,0. […] of the incubation mixture are transferred into a MADP N65 filtration microtiter plate (Millipore, Eschborn, FRG) containing already 50 μl of AG-50W-X8 cation exchange resin (Biorad, München, FRG). […] Scintillation plates are counted in a szintillation counter.
For the measurement of inducible NO-synthaseinhibiting potencies of compounds increasing concentrations of inhibitors were included into the incubation mixture. IC50-values were calculated from the percent inhibition at given concentrations by nonlinear least square fitting.

With `COc1ccnc(CC(C)c2nc3cccnc3[nH]2)c1` (racemic) (as salt: hydrochloride) [Example 1, (R,S)-2-[3-(4-Methoxypyridin-2-yl)prop-2-yl]-3H-imidazo[4,5-b]pyridine hydrochloride], the melting point (usually the temperature of the solid-liquid transition) was in the range of 61 to 64 °C.
On to `COc1ccnc(CC(C)c2nc3cccnc3[nH]2)c1` (racemic) [Example 1, (R,S)-2-[3-(4-Methoxypyridin-2-yl)prop-2-yl]-3H-imidazo[4,5-b]pyridine hydrochloride], for which the IC50 in data set [1] is 70.8 nM.
